Results from patent US9296711B2, “Substituted isoxazole amide compounds as inhibitors of stearoyl-CoA desaturase 1 (SCD1)” (Hoffman-La Roche Inc., priority 2012, dated 2016).

Molecular target: T1, SCD1 (Mus musculus, UniProt P13516)
T1 construct: Mouse liver microsomes, prepared from mice fed a high-carbohydrate diet, were a source of the SCD; from tissue; host or cells: mouse liver microsomes (mice fed a high-carbohydrate diet)
T1 sequence (P13516 1-355): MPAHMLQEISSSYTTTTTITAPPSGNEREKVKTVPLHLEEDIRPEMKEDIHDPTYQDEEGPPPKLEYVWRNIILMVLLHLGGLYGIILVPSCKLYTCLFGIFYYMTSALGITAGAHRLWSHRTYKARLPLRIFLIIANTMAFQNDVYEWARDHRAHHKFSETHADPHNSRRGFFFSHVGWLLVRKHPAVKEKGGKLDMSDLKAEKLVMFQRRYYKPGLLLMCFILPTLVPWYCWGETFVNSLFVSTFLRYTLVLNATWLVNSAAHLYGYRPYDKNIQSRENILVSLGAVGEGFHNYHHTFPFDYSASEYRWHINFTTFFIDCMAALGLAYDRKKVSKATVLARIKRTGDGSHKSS
Assay: SCD assay: release of tritiated water from desaturation of 9,10-3H-stearoyl CoA by mouse liver microsomes
Format: biochemical
Details: mouse liver microsomes as SCD source; 300 nM (9,10)3H-stearoyl CoA; 25 minutes at room temperature; read-out: IC50 (in vitro inhibition of SCD1)
Description: Stearoyl CoA desaturase activity was monitored by a modification of the acyl carrier protein assay described by B. R. Talamo and K. Bloch in Anal. Biochem. 1968, 29, 300-304. The SCD assay monitors the release of tritiated water from the desaturation of 9,10-^3H-stearoyl CoA.
Mouse liver microsomes, prepared from mice fed a high-carbohydrate diet, were a source of the SCD and cyt b5 and cyt b5 reductase, necessary accessory proteins for the coupled reaction. Reaction mixtures for compound titrations contained 50 mM Tris HCl pH 7.5, 100 mM NaCl, 0.165 mg/ml BSA, 2.4% DMSO, 1 mM NADH, 0.03% T-20, and 300 nM (9,10)^3H-stearoyl CoA (Perkin-Elmer). Reactions were initiated upon the addition of 4 ug/ml SCD microsomes. Incubations were terminated after 25 minutes at room temperature with cold 6% TCA. After standing 10 minutes at 4° C., samples were centrifuged 15 minutes at 4000 rpm to pellet precipitated protein. Supernatants were added to microtiter plates containing suspensions of activated charcoal (Darco G-60, Fisher Scientific) and mixed by inversion. Plates were then centrifuged to separate ^3H—H2O product from charcoal-bound reactants. Supernatants were quantitated in a Perkin Elmer Topcount 384 after solubilization in ScintiSafe Plus 50% (Fisher Scientific).
Inhibition (%) of SCD activity by compounds was calculated according to the following formula: % Inhibition=100*[1−(CPMsample−CPMblank)/(CPMtotal−CPMblank)]

| IC50 [nM] | Compound |
| --- | --- |
| 100 | CC1Cc2ccccc2N1Cc1ccc(-c2cc(C(N)=O)on2)cc1 (stereo not drawn) [Example 53, 3-[4-(2-Methyl-2,3-dihydro-indol-1-ylmethyl)-phenyl]-isoxazole-5-carboxylic acid amide] |
| 470 | NC(=O)c1cc(-c2ccc(COc3ccccc3OC(F)(F)F)cc2)no1 [Example 33, 3-[4-(2-Trifluoromethoxy-phenoxymethyl)-phenyl]-isoxazole-5-carboxylic acid amide] |
| 55 | Cc1ccc(F)cc1OCc1ccc(-c2cc(C(N)=O)on2)cc1 [Example 43, 3-[4-(5-Fluoro-2-methyl-phenoxymethyl)-phenyl]-isoxazole-5-carboxylic acid amide] |
| 140 | Cc1ccc(Cl)cc1OCc1ccc(-c2cc(C(N)=O)on2)cc1 [Example 40, 3-[4-(5-Chloro-2-methyl-phenoxymethyl)-phenyl]-isoxazole-5-carboxylic acid amide] |
| 17 | NC(=O)c1cc(-c2ccc(Cn3ccc4ccccc43)cc2)no1 [Example 47, 3-(4-Indol-1-ylmethyl-phenyl)-isoxazole-5-carboxylic acid amide] |
| 74 | NC(=O)c1cc(-c2ccc(Cn3ncc4ccccc43)cc2)no1 [Example 50, 3-(4-Indazol-1-ylmethyl-phenyl)-isoxazole-5-carboxylic acid amide] |
| 72 | NC(=O)c1cc(-c2ccc(Cn3cnc4ccccc43)cc2)no1 [Example 49, 3-(4-Benzoimidazol-1-ylmethyl-phenyl)-isoxazole-5-carboxylic acid amide] |
| 47 | NC(=O)c1cc(-c2ccc(Cn3cc4ccccc4n3)cc2)no1 [Example 51, 3-(4-Indazol-2-ylmethyl-phenyl)-isoxazole-5-carboxylic acid amide] |
| 350 | Cc1cccnc1OCc1ccc(-c2cc(C(N)=O)on2)cc1 [Example 38, 3-[4-(3-Methyl-pyridin-2-yloxymethyl)-phenyl]-isoxazole-5-carboxylic acid amide] |
| 3300 | COc1ccc(OCc2ccc(-c3cc(C(N)=O)on3)cc2)cc1 [Example 30, 3-[4-(4-Methoxy-phenoxymethyl)-phenyl]-isoxazole-5-carboxylic acid amide] |
| 1900 | Cc1cccc(C)c1OCc1ccc(-c2cc(C(N)=O)on2)cc1 [Example 31, 3-[4-(2,6-Dimethyl-phenoxymethyl)-phenyl]-isoxazole-5-carboxylic acid amide] |
| 31 | NC(=O)c1cc(-c2ccc(CN3CCc4ccccc43)cc2)no1 [Example 45, 3-[4-(2,3-Dihydro-indol-1-ylmethyl)-phenyl]-isoxazole-5-carboxylic acid amide] |
| 280 | Cc1cc(F)ccc1OCc1ccc(-c2cc(C(N)=O)on2)cc1 [Example 42, 3-[4-(4-Fluoro-2-methyl-phenoxymethyl)-phenyl]-isoxazole-5-carboxylic acid amide] |
| 1100 | Cc1ncccc1OCc1ccc(-c2cc(C(N)=O)on2)cc1 [Example 44, 3-[4-(2-Methyl-pyridin-3-yloxymethyl)-phenyl]-isoxazole-5-carboxylic acid amide] |
| 220 | Cc1cccc2c1ccn2Cc1ccc(-c2cc(C(N)=O)on2)cc1 [Example 54, 3-[4-(4-Methyl-indol-1-ylmethyl)-phenyl]-isoxazole-5-carboxylic acid amide] |
| 310 | N#Cc1ccccc1OCc1ccc(-c2cc(C(N)=O)on2)cc1 [Example 37, 3-[4-(2-Cyano-phenoxymethyl)-phenyl]-isoxazole-5-carboxylic acid amide] |
| 510 | NC(=O)c1cc(-c2ccc(COc3ccccc3F)cc2)no1 [Example 39, 3-[4-(2-Fluoro-phenoxymethyl)-phenyl]-isoxazole-5-carboxylic acid amide] |
| 390 | Cc1c(Cl)cccc1OCc1ccc(-c2cc(C(N)=O)on2)cc1 [Example 41, 3-[4-(3-Chloro-2-methyl-phenoxymethyl)-phenyl]-isoxazole-5-carboxylic acid amide] |
| 260 | NC(=O)c1cc(-c2ccc(COc3ccccc3C(F)(F)F)cc2)no1 [Example 36, 3-[4-(2-Trifluoromethyl-phenoxymethyl)-phenyl]-isoxazole-5-carboxylic acid amide] |

Further lines, the compound ahead of its results:

| Compound | IC50 [nM] |
| --- | --- |
| NC(=O)c1cc(-c2ccc(OCc3cccc(Cl)c3)cc2)no1 [Example 18, 3-[4-(3-Chloro-benzyloxy)-phenyl]-isoxazole-5-carboxylic acid amide] | 1500 |
| NC(=O)c1cc(-c2ccc(OCc3ccccc3[S+]([O-])C(F)(F)F)cc2)no1 (stereo not drawn) [Example 2, 3-[4-(2-Trifluoromethanesulfinyl-benzyloxy)-phenyl]-isoxazole-5-carboxylic acid amide] | 580 |
| NC(=O)c1cc(-c2ccc(OCc3cc(F)ccc3Cl)cc2)no1 [Example 13, 3-[4-(2-Chloro-5-fluoro-benzyloxy)-phenyl]-isoxazole-5-carboxylic acid amide] | 420 |
| NC(=O)c1cc(-c2ccc(OCc3ccc(F)c(F)c3)cc2)no1 [Example 7, 3-[4-(3,4-Difluoro-benzyloxy)-phenyl]-isoxazole-5-carboxylic acid amide] | 2300 |
| CS(=O)(=O)c1ccccc1COc1ccc(-c2cc(C(N)=O)on2)cc1 [Example 22, 3-[4-(2-Methanesulfonyl-benzyloxy)-phenyl]-isoxazole-5-carboxylic acid amide] | 1500 |
| Cc1ccccc1COc1ccc(-c2cc(C(N)=O)on2)cc1 [Example 9, 3-[4-(2-Methyl-benzyloxy)-phenyl]-isoxazole-5-carboxylic acid amide] | 460 |
| COc1ccccc1COc1ccc(-c2cc(C(N)=O)on2)cc1 [Example 3, 3-[4-(2-Methoxy-benzyloxy)-phenyl]-isoxazole-5-carboxylic acid amide] | 850 |
| NC(=O)c1cc(-c2ccc(OCc3ccccc3OC(F)(F)F)cc2)no1 [Example 10, 3-[4-(2-Trifluoromethoxy-benzyloxy)-phenyl]-isoxazole-5-carboxylic acid amide] | 210 |
| NC(=O)c1cc(-c2ccc(OCc3ccccc3Br)cc2)no1 [Example 20, 3-[4-(2-Bromo-benzyloxy)-phenyl]-isoxazole-5-carboxylic acid amide] | 170 |
| NC(=O)c1cc(-c2ccc(OCc3c(F)cccc3Cl)cc2)no1 [Example 12, 3-[4-(2-Chloro-6-fluoro-benzyloxy)-phenyl]-isoxazole-5-carboxylic acid amide] | 3100 |
| NC(=O)c1cc(-c2ccc(OCc3cccc(C(F)(F)F)c3)cc2)no1 [Example 17, 3-[4-(3-Trifluoromethyl-benzyloxy)-phenyl]-isoxazole-5-carboxylic acid amide] | 1400 |
| NC(=O)c1cc(-c2ccc(OCc3ccccc3Cl)cn2)no1 [Example 14, 3-[5-(2-Chloro-benzyloxy)-pyridin-2-yl]-isoxazole-5-carboxylic acid amide] | 1400 |
| Cc1ccc(COc2ccc(-c3cc(C(N)=O)on3)cc2)cc1C [Example 4, 3-[4-(3,4-Dimethyl-benzyloxy)-phenyl]-isoxazole-5-carboxylic acid amide] | 2700 |
| NC(=O)c1cc(-c2ccc(OCc3ccccc3Cl)cc2)no1 [Example 19, 3-[4-(2-Chloro-benzyloxy)-phenyl]-isoxazole-5-carboxylic acid amide] | 280 |
| N#Cc1ccccc1COc1ccc(-c2cc(C(N)=O)on2)cc1 [Example 5, 3-[4-(2-Cyano-benzyloxy)-phenyl]-isoxazole-5-carboxylic acid amide] | 970 |
| NC(=O)c1cc(-c2ccc(OCc3ccccc3SC(F)(F)F)cc2)no1 [Example 1, 3-[4-(2-Trifluoromethylsulfanyl-benzyloxy)-phenyl]-isoxazole-5-carboxylic acid amide] | 480 |
| Cc1ccccc1OCc1ccc(-c2cc(C(N)=O)on2)cc1 [Example 26, 3-(4-o-Tolyloxymethyl-phenyl)-isoxazole-5-carboxylic acid amide] | 66 |
| NC(=O)c1cc(-c2ccc(OCc3ccccc3C(F)(F)F)cc2)no1 [Example 21, 3-[4-(2-Trifluoromethyl-benzyloxy)-phenyl]-isoxazole-5-carboxylic acid amide] | 180 |
| NC(=O)c1cc(-c2ccc(COc3ccc(Cl)cc3)cc2)no1 [Example 25, 3-[4-(4-Chloro-phenoxymethyl)-phenyl]-isoxazole-5-carboxylic acid amide] | 1300 |
| NC(=O)c1cc(-c2ccc(OCc3cccnc3Cl)cc2)no1 [Example 15, 3-[4-(2-Chloro-pyridin-3-ylmethoxy)-phenyl]-isoxazole-5-carboxylic acid amide] | 2400 |
